# Data from PMC10041525, “New Dual Inhibitors of Bacterial Topoisomerases with Broad-Spectrum Antibacterial Activity and In Vivo Efficacy against Vancomycin-Intermediate Staphylococcus aureus” (Journal of Medicinal Chemistry, 2023).
# Where two headings read alike, the source gives them in different places.
# System: 100 A. baumannii strains (50 MDR, 50 non-MDR)
# Test: MIC broth microdilution at IHMA Europe, panel of 100 strains
# Type: cell-based
# Settings: Acinetobacter baumannii; for MIC50: read-out: MIC 50
smiles,measurement,setting,value
"COc1c(N2C[C@@H]3CCCN[C@@H]3C2)c(F)cc2c(=O)c(C(=O)O)cn(C3CC3)c12 [Moxifloxacin, moxifloxacin]",MIC,"A. baumannii IHMA 1769393, Lithuania 2018, Non-MDR, read-out: MIC",≤ 0.5 µg/mL
same,MIC,"A. baumannii IHMA 1769782, Israel 2018, MDR, read-out: MIC",8 µg/mL
same,MIC,"A. baumannii IHMA 1769910, Israel 2018, Non-MDR, read-out: MIC",≤ 0.5 µg/mL
same,MIC,"A. baumannii IHMA 1790317, Czech Republic 2018, Non-MDR, read-out: MIC",≤ 0.5 µg/mL
same,MIC,"A. baumannii IHMA 1790916, Romania 2018, Non-MDR, read-out: MIC",≤ 0.5 µg/mL
same,MIC,"A. baumannii IHMA 1791877, Israel 2018, MDR, read-out: MIC",8 µg/mL
same,MIC,"A. baumannii IHMA 1792961, Jordan 2018, MDR, read-out: MIC",8 µg/mL
same,MIC,"A. baumannii IHMA 1795669, Tunisia 2018, Non-MDR, read-out: MIC",≤ 0.5 µg/mL
same,MIC,"A. baumannii IHMA 1815856, Israel 2018, MDR, read-out: MIC",8 µg/mL
same,MIC,"A. baumannii IHMA 1821468, South Africa 2018, Non-MDR, read-out: MIC",≤ 0.5 µg/mL
same,MIC,"A. baumannii IHMA 1829500, Georgia 2018, Non-MDR, read-out: MIC",≤ 0.5 µg/mL
same,MIC,"A. baumannii IHMA 1830924, United Kingdom 2018, Non-MDR, read-out: MIC",≤ 0.5 µg/mL
same,MIC,"A. baumannii IHMA 1849829, Kuwait 2018, Non-MDR, read-out: MIC",≤ 0.5 µg/mL
same,MIC,"A. baumannii IHMA 1857118, Slovenia 2018, Non-MDR, read-out: MIC",≤ 0.5 µg/mL
same,MIC,"A. baumannii IHMA 1863631, France 2018, Non-MDR, read-out: MIC",≤ 0.5 µg/mL
same,MIC,"A. baumannii IHMA 1870054, United States 2018, Non-MDR, read-out: MIC",≤ 0.5 µg/mL
same,MIC,"A. baumannii IHMA 1884428, Italy 2018, Non-MDR, read-out: MIC",≤ 0.5 µg/mL
same,MIC,"A. baumannii IHMA 1884990, Germany 2018, Non-MDR, read-out: MIC",≤ 0.5 µg/mL
same,MIC,"A. baumannii IHMA 1900538, Turkey 2018, Non-MDR, read-out: MIC",≤ 0.5 µg/mL
same,MIC,"A. baumannii IHMA 1913773, Kenya 2018, Non-MDR, read-out: MIC",≤ 0.5 µg/mL
same,MIC,"A. baumannii IHMA 1926285, Qatar 2018, Non-MDR, read-out: MIC",≤ 0.5 µg/mL
same,MIC,"A. baumannii IHMA 1957343, Portugal 2019, Non-MDR, read-out: MIC",≤ 0.5 µg/mL
same,MIC,"A. baumannii IHMA 1967860, Spain 2019, Non-MDR, read-out: MIC",≤ 0.5 µg/mL
same,MIC,"A. baumannii IHMA 1975075, Israel 2019, Non-MDR, read-out: MIC",≤ 0.5 µg/mL
same,MIC,"A. baumannii IHMA 1977077, Kuwait 2019, Non-MDR, read-out: MIC",≤ 0.5 µg/mL
same,MIC,"A. baumannii IHMA 1983151, Greece 2019, MDR, read-out: MIC",8 µg/mL
same,MIC,"A. baumannii IHMA 1986678, Turkey 2019, Non-MDR, read-out: MIC",≤ 0.5 µg/mL
same,MIC,"A. baumannii IHMA 1987162, Croatia 2019, MDR, read-out: MIC",8 µg/mL
same,MIC,"A. baumannii IHMA 1993615, Turkey 2019, MDR, read-out: MIC",8 µg/mL
same,MIC,"A. baumannii IHMA 1995161, Czech Republic 2019, Non-MDR, read-out: MIC",≤ 0.5 µg/mL
same,MIC,"A. baumannii IHMA 1997936, Morocco 2019, Non-MDR, read-out: MIC",≤ 0.5 µg/mL
same,MIC,"A. baumannii IHMA 1999178, Belgium 2019, Non-MDR, read-out: MIC",≤ 0.5 µg/mL
same,MIC,"A. baumannii IHMA 2014367, Jordan 2019, Non-MDR, read-out: MIC",≤ 0.5 µg/mL
same,MIC,"A. baumannii IHMA 2014931, South Africa 2019, Non-MDR, read-out: MIC",≤ 0.5 µg/mL
same,MIC,"A. baumannii IHMA 2019315, Romania 2019, Non-MDR, read-out: MIC",≤ 0.5 µg/mL
same,MIC,"A. baumannii IHMA 2031511, Greece 2019, Non-MDR, read-out: MIC",≤ 0.5 µg/mL
same,MIC,"A. baumannii IHMA 2031524, Greece 2019, MDR, read-out: MIC",4 µg/mL
same,MIC,"A. baumannii IHMA 2034657, Tunisia 2019, Non-MDR, read-out: MIC",≤ 0.5 µg/mL
same,MIC,"A. baumannii IHMA 2035134, Serbia 2019, Non-MDR, read-out: MIC",≤ 0.5 µg/mL
same,MIC,"A. baumannii IHMA 2038976, Hungary 2019, MDR, read-out: MIC",8 µg/mL
same,MIC,"A. baumannii IHMA 2058329, Slovenia 2019, Non-MDR, read-out: MIC",≤ 0.5 µg/mL
same,MIC,"A. baumannii IHMA 2065587, France 2019, Non-MDR, read-out: MIC",≤ 0.5 µg/mL
same,MIC,"A. baumannii IHMA 2099294, United Kingdom 2019, Non-MDR, read-out: MIC",≤ 0.5 µg/mL
same,MIC,"A. baumannii IHMA 2129256, Qatar 2019, Non-MDR, read-out: MIC",≤ 0.5 µg/mL
same,MIC,"A. baumannii IHMA 2157614, Australia 2020, Non-MDR, read-out: MIC",≤ 0.5 µg/mL
same,MIC,"A. baumannii IHMA 2178574, Ukraine 2020, Non-MDR, read-out: MIC",≤ 0.5 µg/mL
same,MIC,"A. baumannii IHMA 2180134, Malaysia 2020, Non-MDR, read-out: MIC",≤ 0.5 µg/mL
same,MIC,"A. baumannii IHMA 2180142, Malaysia 2020, MDR, read-out: MIC",8 µg/mL
same,MIC,"A. baumannii IHMA 2181370, Morocco 2020, MDR, read-out: MIC",8 µg/mL
same,MIC,"A. baumannii IHMA 2183729, Argentina 2020, MDR, read-out: MIC",4 µg/mL
same,MIC,"A. baumannii IHMA 2183849, Argentina 2020, Non-MDR, read-out: MIC",≤ 0.5 µg/mL
same,MIC,"A. baumannii IHMA 2184382, Japan 2020, Non-MDR, read-out: MIC",≤ 0.5 µg/mL
same,MIC,"A. baumannii IHMA 2193375, Venezuela 2020, MDR, read-out: MIC",8 µg/mL
same,MIC,"A. baumannii IHMA 2193485, Venezuela 2020, Non-MDR, read-out: MIC",≤ 0.5 µg/mL
same,MIC,"A. baumannii IHMA 2193607, Venezuela 2020, MDR, read-out: MIC",4 µg/mL
same,MIC,"A. baumannii IHMA 2195460, Italy 2020, MDR, read-out: MIC",8 µg/mL
same,MIC,"A. baumannii IHMA 2196959, South Africa 2020, MDR, read-out: MIC",8 µg/mL
same,MIC,"A. baumannii IHMA 2206507, Taiwan 2020, Non-MDR, read-out: MIC",≤ 0.5 µg/mL
same,MIC,"A. baumannii IHMA 2212575, Hungary 2020, Non-MDR, read-out: MIC",≤ 0.5 µg/mL
same,MIC,"A. baumannii IHMA 2215307, Hong Kong 2020, Non-MDR, read-out: MIC",≤ 0.5 µg/mL
same,MIC,"A. baumannii IHMA 2216586, Taiwan 2020, MDR, read-out: MIC",8 µg/mL
same,MIC,"A. baumannii IHMA 2223200, Colombia 2020, Non-MDR, read-out: MIC",≤ 0.5 µg/mL
same,MIC,"A. baumannii IHMA 2224303, Panama 2020, Non-MDR, read-out: MIC",≤ 0.5 µg/mL
same,MIC,"A. baumannii IHMA 2233099, Guatemala 2020, MDR, read-out: MIC",8 µg/mL
same,MIC,"A. baumannii IHMA 2233548, Kazakhstan 2020, Non-MDR, read-out: MIC",≤ 0.5 µg/mL
same,MIC,"A. baumannii IHMA 2238964, Thailand 2020, MDR, read-out: MIC",8 µg/mL
same,MIC,"A. baumannii IHMA 2239052, Thailand 2020, Non-MDR, read-out: MIC",≤ 0.5 µg/mL
same,MIC,"A. baumannii IHMA 2261047, Belgium 2020, MDR, read-out: MIC",8 µg/mL
same,MIC,"A. baumannii IHMA 2261633, Canada 2020, Non-MDR, read-out: MIC",≤ 0.5 µg/mL
same,MIC,"A. baumannii IHMA 2274234, South Africa 2020, MDR, read-out: MIC",8 µg/mL
same,MIC,"A. baumannii IHMA 2275237, Chile 2020, Non-MDR, read-out: MIC",≤ 0.5 µg/mL
same,MIC,"MDR n = 50, read-out: MIN (minimum MIC)",4 µg/mL
same,MIC50,all isolates n = 100,≤ 0.5 µg/mL
same,MIC,"all isolates n = 100, read-out: MIN (minimum MIC)",≤ 0.5 µg/mL
same,MIC,"non-MDR n = 50, read-out: MAX (maximum MIC)",≤ 0.5 µg/mL
same,MIC50,non-MDR n = 50,≤ 0.5 µg/mL
same,MIC90,"non-MDR n = 50, read-out: MIC 90",≤ 0.5 µg/mL
same,MIC,"non-MDR n = 50, read-out: MIN (minimum MIC)",≤ 0.5 µg/mL
